Data as given in patent US8921405B2, “Compounds” (Orexo AB, priority 2009, dated 2014).

Target: T1, recombinant human mPGES-1 (Homo sapiens, UniProt O14684)
T1 construct: made in house; host or cells: Rosetta E. coli (membrane/microsome fraction)
T1 sequence (O14684 1-152): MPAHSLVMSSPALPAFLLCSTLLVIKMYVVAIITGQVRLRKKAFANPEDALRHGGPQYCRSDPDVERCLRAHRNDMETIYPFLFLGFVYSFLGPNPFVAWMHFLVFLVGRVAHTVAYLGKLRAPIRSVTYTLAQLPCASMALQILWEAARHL
Experiment: mPGES-1 HTRF assay (inhibition of PGE2 formation from PGH2)
Assay type: biochemical
Conditions: HTRF assay; for inhibition at 10 µM: compound concentration of 10 μM, read-out: % inhibition
Procedure, shortened: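 Microsomes of E. coli expressing human mPGES-1, in 0.1 M KPi pH 7.4 with 2.5 mM GSH, preincubated 25 min at room temperature with inhibitor, then given PGH2 for 1 min before FeCl2 acidic stop. PGE2 quantified by HTRF (665/620 nm ratio) against synthetic PGE2 standard curve; percent inhibition versus controls.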

SMILES	IC50	inhibition at 10 µM
Cn1c(Nc2cc(CNC(=O)c3c(F)cccc3Cl)ccc2Cl)nc2cc(C(=O)NCC3CCCCC3)ccc21 [Example 27, 2-{2-Chloro-5-[(2-chloro-6-fluorobenzamido)methyl]phenylamino}-N-cyclohexylmethyl-1-methylbenzimidazole-5-carboxamide]	–	100%
CC1(C(=O)NCc2ccc(Cl)c(Nc3nc4cc(C(=O)NC5CCCC5)c(Cl)cc4n3C3CCCC3)c2)CCCCC1 [Example 23, 6-Chloro-2-{2-chloro-5-[(1-methylcyclohexylamido)methyl]phenylamino}-N,1-dicyclopentylbenzimidazole-5-carboxamide]	–	100%

The next lines start with the values.

IC50	inhibition at 10 µM	SMILES
1 nM	–	Cn1c(Nc2cc(CNC(=O)C3(C(F)(F)F)CC3)ccc2Cl)nc2cc(C(=O)NCCCC(F)(F)F)c(OCC(F)F)cc21 [Example 61, N-(4,4,4-Trifluorobutyl)-2-(2-chloro-5-{[(1-trifluoromethyl-cyclopropanecarbonyl)-amino]-methyl}-phenylamino)-6-(2,2-difluoro-ethoxy)-1-methyl-1H-benzimidazole-5-carboxylic acid amide]
–	100%	Cn1c(Nc2cc(CNC(=O)C3CCC(F)(F)CC3)ccc2Cl)nc2cc(C(=O)Nc3ccc(Br)cc3)ccc21 [Example 35, N-(4-Bromophenyl)-2-{2-chloro-5-[(4,4-difluorocyclohexylamido)-methyl]phenylamino]-1-methylbenzimidazole-5-carboxamide]
–	100%	Cn1c(Nc2cc(CNC(=O)C3(C)CC3)ccc2Cl)nc2cc(C(=O)Nc3ccc(Br)cc3)ccc21 [Example 10]
